Laboratory results reported in US20160346249A1 (priority 2012, published 2016).
Values joined by “and” are separate entries in the source; they are usually repeats but may differ in a detail not shown here. Equal entries are not always repeated.

Assays:
[1] = Single dose 300 mg / 450 mg pharmacokinetic, safety and tolerability study in healthy male and female subjects; conditions: for renal clearance, individual subjects: listed as DOV 21,947; for CL renal: urine and plasma, renal clearance; for CL renal / Percent of Dose in Urine (0-24 hr): Mean (SD)
From the text: Fourteen subjects, divided equally between males and females, were enrolled in the study and randomized between test article (5/sex) and placebo (2/sex). […] All subjects met the inclusion and exclusion criteria for entry into the study as detailed in the protocol and signed an informed consent form.
The subjects were confined to the clinical study site from Day −1 to the morning of Day 2, when they underwent a brief physical examination, clinical laboratory tests, and a physician visit before they were discharged. On Day 7, they reported to the clinical site again and were confined to the site until the morning of Day 9. At that time, they underwent a complete physical examination, clinical laboratory tests, and a physician's visit before they were discharged from the study. All subjects were fasted overnight on Days −1 and 7 from approximately 22:00 to approximately 4 hours post-dose on Days 1 and 8, at which time they received a standard lunch.
Subjects that received the placebo (2/sex) ingested six identical looking capsules with no drug. […] Capsules on both days were ingested with 240 mL water. […] Samples were collected into lithium heparin-containing Vacutainers® and centrifuged at approximately 3000 rpm to obtain the plasma fraction. The plasma was split into two polypropylene tubes and stored at −20° C. […] The urine volumes were recorded and an aliquot was stored for drug concentration measurements.
Validated LC/MS/MS assays were used for analyses; the assay range for both analytes in plasma and urine were 5.00 to 2000 ng/mL.
Plasma concentration-time data for each subject were analyzed with WinNonlin, version 4.1 (Pharsight Corporation, Mountain View, Calif.) using a non-compartmental model. […] Plasma concentrations listed as not detected (ND) or below the lower limit of quantitation (LLOQ) were set to zero. The values of Cmax and Tmax were the observed values for each subject. AUC0-t was determined using the linear trapezoidal rule whenever the concentration data were increasing and the logarithmic trapezoidal rule any time that the concentration data were decreasing. The apparent λz was calculated as the negative slope of the log-linear terminal portion of the blood concentration-time curve using linear regression. To allow for accurate calculation of λz, a minimum of three observations, selected by WinNonlin, was used. The t½ was calculated as ln 2/λz. AUC0-t was extrapolated to infinity (AUC0-∞) as follows: AUC0-∞=AUC0-t+Clast/λz where Clast is the last quantifiable concentration. The apparent oral clearance (CL/F) was calculated as Dose/AUC0-∞. The apparent oral volume of distribution (Vz/F) was calculated as Dose/λz×AUC0-∞. The mean residence time from time zero to infinity (MRT0-∞) was calculated as AUMC0-∞/AUC0-∞.

[2] = 12-month dog toxicity and toxicokinetic study; type: in vivo; conditions: for Cmax / Tmax / AUC(0-t): beagle, dog, plasma, po; for AUC(0-t): read-out: AUC0-24; for body weight lower than control: Week 52
Experimental: Blood samples were collected on Days 0, 91, 181, 268 and 358 from up to 4 animals/gender/group. Plasma samples collected on Days 91, 181, 268, as well as all plasma samples collected from the control group were not evaluated.
For toxicology assessment four dogs of each gender were included in each group. Assessments included clinical observations, body weight, and food consumption measures which were recorded periodically during the study. Ophthalmic examinations were performed during Weeks 1, 12, 25, 38, 51, and 55 (recovery period). Electrocardiograms were recorded during Weeks 2, 12, 25, 38, and 51. Clinical pathology evaluations (hematology, serum chemistry, and urinalysis) were performed during Weeks 1, 12, 25, 38, 52, and 56 (recovery period). At termination, complete necropsies were performed on all dogs and selected organs were weighed. Selected tissues from the control and 20 (15) mg/kg/day group animals and animals euthanized in extremis were examined microscopically. Sections of livers from dogs in the control and 20 (15) mg/kg/day groups were collected at both the primary and 4-week post-treatment recovery necropsies for assessment of drug metabolism enzyme (microsomal cytochrome P450) activity.

[3] = both, human, plasma, oral, 300 mg
[4] = both, human, plasma, oral, 450 mg
[5] = both, human, plasma, po, 300 mg
[6] = both, human, plasma, po, 450 mg
[7] = female, human, plasma, po, 300 mg
[8] = female, human, plasma, po, 450 mg
[9] = male, human, plasma, po, 300 mg
[10] = male, human, plasma, po, 450 mg
[11] = single oral 300 mg DOV 21,947 HCl IR, Female, N = 5
[12] = single oral 300 mg DOV 21,947 HCl IR, Male, N = 5
[13] = single oral 300 mg DOV 21,947 HCl IR, mean, N = 10
[14] = single oral 450 mg DOV 21,947 HCl IR, Female, N = 5
[15] = single oral 450 mg DOV 21,947 HCl IR, Male, N = 5
[16] = female, 2 mg/kg/day, females, 2 mg/kg/day, Day 0
[17] = female, 2 mg/kg/day, females, 2 mg/kg/day, Day 358
[18] = female, 6 mg/kg/day, females, 6 mg/kg/day, Day 0
[19] = female, 6 mg/kg/day, females, 6 mg/kg/day, Day 358
[20] = female, 15 mg/kg/day, females, 20 (15) mg/kg/day, Day 358
[21] = female, 20 mg/kg/day, females, 20 (15) mg/kg/day, Day 0
[22] = male, 2 mg/kg/day, males, 2 mg/kg/day, Day 0
[23] = male, 2 mg/kg/day, males, 2 mg/kg/day, Day 358
[24] = male, 6 mg/kg/day, males, 6 mg/kg/day, Day 0
[25] = male, 6 mg/kg/day, males, 6 mg/kg/day, Day 358
[26] = male, 15 mg/kg/day, males, 20 (15) mg/kg/day, Day 358
[27] = male, 20 mg/kg/day, males, 20 (15) mg/kg/day, Day 0

Clc1ccc([C@]23CNC[C@H]2C3)cc1Cl [amitifadine, (+)-1-(3,4-dichlorophenyl)-3-azabicyclo[3.1.0]hexane]
ingested dose in urine (0-24 hr) ([1]; 300 mg): 0.4% | renal clearance, individual subjects ([1]; 300 mg single oral dose): 40.6 mL/h and 62.1 mL/h and 32.1 mL/h and 47.7 mL/h and 39.2 mL/h and 66.6 mL/h and 91.7 mL/h and 47.3 mL/h and 76.4 mL/h | ingested dose in urine (0-24 hr) ([1]; 450 mg): 0.3% | renal clearance, individual subjects ([1]; 450 mg single oral dose): 42.2 mL/h and 31.9 mL/h and 25.4 mL/h and 22.3 mL/h and 40.1 mL/h and 34.1 mL/h and 32.1 mL/h and 79.2 mL/h and 33.7 mL/h and 47.3 mL/h | oral clearance ([1]; 300 and 450 mg): 13.2 to 13.6 L/h | Cmax [1, 3]: 3370 ng/mL | Tmax [1, 3]: 2.15 h | Cmax [1, 4]: 5110 ng/mL | MRT [1, 4]: 6.3 to 6.4 h | Tmax [1, 4]: 2.43 h | half-life ([1]; both, human, plasma, oral, 450 mg, elimination half-life, 300 and 450 mg): ~4 h | AUC(0-inf) [1, 5]: 19700 ng·h/mL | AUC(0-t) [1, 5]: 19400 ng·h/mL | Cmax [1, 5]: 3370 ng/mL | MRT inf [1, 5]: 6.29 h | Tmax [1, 5]: 2.15 h | half-life ([1]; both, human, plasma, po, 300 mg, t½ (Harmonic mean), single oral 300 mg DOV 21,947 HCl IR, N = 10): 4.2 h | half-life ([1]; both, human, plasma, po, 300 mg, t½, single oral 300 mg DOV 21,947 HCl IR, arithmetic mean, N = 10): 4.24 h | AUC(0-inf) [1, 6]: 30500 ng·h/mL | AUC(0-t) [1, 6]: 30000 ng·h/mL | Cmax [1, 6]: 5110 ng/mL | MRT inf [1, 6]: 6.39 h | Tmax [1, 6]: 2.43 h | half-life ([1]; both, human, plasma, po, 450 mg, t½ (Harmonic mean), single oral 450 mg DOV 21,947 HCl IR, N = 10): 3.77 h | half-life ([1]; both, human, plasma, po, 450 mg, t½, single oral 450 mg DOV 21,947 HCl IR, arithmetic mean, N = 10): 3.82 h | CL renal ([1]; both, human, po, 300 mg, 300 mg single oral dose): 0.943 mL/min | CL renal ([1]; both, human, po, 450 mg, 450 mg single oral dose): 0.647 mL/min | AUC(0-inf) [1, 7]: 20500 ng·h/mL | AUC(0-t) [1, 7]: 20100 ng·h/mL | Cmax [1, 7]: 3260 ng/mL | MRT inf [1, 7]: 6.51 h | Tmax [1, 7]: 2.7 h | half-life ([1]; female, human, plasma, po, 300 mg, t½ (Harmonic mean), single oral 300 mg DOV 21,947 HCl IR, N = 5): 4.1 h | half-life ([1]; female, human, plasma, po, 300 mg, t½, single oral 300 mg DOV 21,947 HCl IR, N = 5, arithmetic mean): 4.14 h | AUC(0-inf) [1, 8]: 29900 ng·h/mL | AUC(0-t) [1, 8]: 29500 ng·h/mL | Cmax [1, 8]: 4540 ng/mL | MRT inf [1, 8]: 6.42 h | Tmax [1, 8]: 3 h | half-life ([1]; female, human, plasma, po, 450 mg, t½ (Harmonic mean), single oral 450 mg DOV 21,947 HCl IR, N = 5): 3.57 h | half-life ([1]; female, human, plasma, po, 450 mg, t½, single oral 450 mg DOV 21,947 HCl IR, N = 5, arithmetic mean): 3.58 h | AUC(0-inf) [1, 9]: 19000 ng·h/mL | AUC(0-t) [1, 9]: 18600 ng·h/mL | Cmax [1, 9]: 3480 ng/mL | MRT inf [1, 9]: 6.07 h | Tmax [1, 9]: 1.6 h | half-life ([1]; male, human, plasma, po, 300 mg, t½ (Harmonic mean), single oral 300 mg DOV 21,947 HCl IR, N = 5): 4.31 h | half-life ([1]; male, human, plasma, po, 300 mg, t½, single oral 300 mg DOV 21,947 HCl IR, N = 5, arithmetic mean): 4.34 h | AUC(0-inf) [1, 10]: 31100 ng·h/mL | AUC(0-t) [1, 10]: 30500 ng·h/mL | Cmax [1, 10]: 5680 ng/mL | MRT inf [1, 10]: 6.35 h | Tmax [1, 10]: 1.85 h | half-life ([1]; male, human, plasma, po, 450 mg, t½ (Harmonic mean), single oral 450 mg DOV 21,947 HCl IR, N = 5): 4 h | half-life ([1]; male, human, plasma, po, 450 mg, t½, single oral 450 mg DOV 21,947 HCl IR, N = 5, arithmetic mean): 4.06 h | CL/F [1, 11]: 13.0 L/h | λz [1, 11]: 0.169 h⁻¹ | CL/F [1, 12]: 14.2 L/h | λz [1, 12]: 0.161 h⁻¹ | Percent of Dose in Urine (0-24 hr) ([1]; single oral 300 mg DOV 21,947 HCl IR): 0.411 (0.121) Percent of Dose | Mean Amount in Urine ([1]; single oral 300 mg DOV 21,947 HCl IR, Period 0-1 hr): 17.0 µg | Mean Amount in Urine ([1]; single oral 300 mg DOV 21,947 HCl IR, Period 1-2 hr): 115 µg | Mean Amount in Urine ([1]; single oral 300 mg DOV 21,947 HCl IR, Period 2-4 hr): 279 µg | Mean Amount in Urine ([1]; single oral 300 mg DOV 21,947 HCl IR, Period 4-8 hr): 371 µg | Mean Amount in Urine ([1]; single oral 300 mg DOV 21,947 HCl IR, Period 8-12 hr): 137 µg | Mean Amount in Urine ([1]; single oral 300 mg DOV 21,947 HCl IR, Period 12-24 hr): 115 µg | Mean Amount in Urine ([1]; single oral 300 mg DOV 21,947 HCl IR, Total (0-24 hr)): 1064 µg | CL/F [1, 13]: 13.6 L/h | λz [1, 13]: 0.165 h⁻¹ | CL/F [1, 14]: 13.7 L/h | λz [1, 14]: 0.194 h⁻¹ | CL/F [1, 15]: 12.8 L/h | λz [1, 15]: 0.173 h⁻¹ | Percent of Dose in Urine (0-24 hr) ([1]; single oral 450 mg DOV 21,947 HCl IR): 0.299 (0.143) Percent of Dose | Mean Amount in Urine ([1]; single oral 450 mg DOV 21,947 HCl IR, Period 0-1 hr): 9.4 µg | Mean Amount in Urine ([1]; single oral 450 mg DOV 21,947 HCl IR, Period 1-2 hr): 66.3 µg | Mean Amount in Urine ([1]; single oral 450 mg DOV 21,947 HCl IR, Period 2-4 hr): 322 µg | Mean Amount in Urine ([1]; single oral 450 mg DOV 21,947 HCl IR, Period 4-8 hr): 402 µg | Mean Amount in Urine ([1]; single oral 450 mg DOV 21,947 HCl IR, Period 8-12 hr): 195 µg | Mean Amount in Urine ([1]; single oral 450 mg DOV 21,947 HCl IR, Period 12-24 hr): 164 µg | Mean Amount in Urine ([1]; single oral 450 mg DOV 21,947 HCl IR, Total (0-24 hr)): 1159 µg | λz ([1]; single oral 450 mg DOV 21,947 HCl IR, mean, N = 10): 0.184 h⁻¹ | Cmax [2, 16]: 615 ng/mL | Tmax [2, 16]: 1 h | AUC(0-t) [2, 16]: 1580 ng·h/mL | Cmax [2, 17]: 1150 ng/mL | Tmax [2, 17]: 1 h | AUC(0-t) [2, 17]: 3990 ng·h/mL | Cmax [2, 18]: 3680 ng/mL | Tmax [2, 18]: 1.3 h | AUC(0-t) [2, 18]: 10800 ng·h/mL | Cmax [2, 19]: 2420 ng/mL | Tmax [2, 19]: 1 h | AUC(0-t) [2, 19]: 11100 ng·h/mL | Cmax [2, 20]: 5800 ng/mL | Tmax [2, 20]: 1.2 h | AUC(0-t) [2, 20]: 19600 ng·h/mL | Cmax [2, 21]: 6880 ng/mL | Tmax [2, 21]: 1 h | AUC(0-t) [2, 21]: 24100 ng·h/mL | body weight lower than control ([2]; females, 6 mg/kg/day): 12% | body weight lower than control ([2]; females, 20 (15) mg/kg/day): 14% | Cmax [2, 22]: 1040 ng/mL | Tmax [2, 22]: 1.3 h | AUC(0-t) [2, 22]: 2130 ng·h/mL | Cmax [2, 23]: 844 ng/mL | Tmax [2, 23]: 1 h | AUC(0-t) [2, 23]: 2220 ng·h/mL | Cmax [2, 24]: 3250 ng/mL | Tmax [2, 24]: 1.3 h | AUC(0-t) [2, 24]: 10500 ng·h/mL | Cmax [2, 25]: 2780 ng/mL | Tmax [2, 25]: 1.3 h | AUC(0-t) [2, 25]: 15800 ng·h/mL | Cmax [2, 26]: 4830 ng/mL | Tmax [2, 26]: 1.2 h | AUC(0-t) [2, 26]: 18100 ng·h/mL | Cmax [2, 27]: 7980 ng/mL | Tmax [2, 27]: 1 h | AUC(0-t) [2, 27]: 29600 ng·h/mL | body weight lower than control ([2]; males, 6 mg/kg/day): 5% | body weight lower than control ([2]; males, 20 (15) mg/kg/day): 15%
